In patent US20040077080A1, “Compositions and methods for induction of proteins involved in xenobiotic metabolism” (priority 2000, published 2004):
Where two headings read alike, the source gives them in different places.

Experiments:
[1] = test system: PXR / mdr1(dr4) response element; conditions: human, 48 h
[2] = test system: PXR / mdr1(dr4) response element; assay: Caco-PXR/Pgp-Luc stable cell luciferase assay
Procedure: (§1) FIG. 35 depicts dose-response behavior to various PXR activators in stable cell lines overexpressing PXR and harboring DR4 response element. FIG. 35A: Results are shown for the stable cell line Hep-PXR/PgpLuc. FIG. 35B: Results are shown for the stable cell line Caco-PXR/PgpLuc.
(§2) Cells were exposed to the test compounds for 48 hours at the concentrations indicated.
(§3) Establishment of stable transformants containing both PXR and reporter plasmid and development of high throughput bioassay for PXR-dependent transactivation: The stable transformants Hep-PXR/mdr1(dr4)-Luc and Caco-PXR/mdr1(dr4)-Luc cell lines were generated from the parental cell lines HepG-PXR and Caco-PXR, respectively, according to the following procedure. The parental cell lines HepG-PXR and Caco-PXR, which overexpress PXR, were stably transfected with the luciferase reporter plasmid mdr1(dr4)-Luc. The transfected cells were cultured in DMEM (HepG-PXR cells) or in IMEM (Caco-PXR cells), both media supplemented with 10% fetal bovine serum and neomycin (700 micrograms per milliliter).
(§4) For the induction assay, stable transformants were seeded in 96-wells plates at a density of 1×10^4 cells per well and allowed to recover overnight. Plates were treated with test compounds at varying concentrations, using 3 replicates per dose. After 48 hours of exposure to the test compound, cells were washed with phosphate buffered saline, lysis buffer was applied to the wells, and luciferase substrate added. Following 10 minutes for light adaptation, luminescence was monitored according to the manufacturer's instructions (Packard kit, Biomed).

[3] = test system: PXR / mdr1(dr4) response element; assay: Hep-PXR/Pgp-Luc stable cell luciferase assay
Procedure: as §1, §2
FIG. 36 depicts the effect of environmental and botanical chemicals on luciferase activity in the stable cell line Hep-PXR/PgpLuc. Cells were inoculated into 96-well plates at a density of 2×10^4 cells per well. After overnight recovery, cells were treated with the test compounds at the concentrations indicated for 48 hours.
as §3, §4

MDR1 P-glycoprotein mRNA = assay: Northern blot of MDR1 P-glycoprotein expression (Example VI)
Excerpt: FIG. 31 depicts MDR1 gene expression in LS174T cells as analyzed by Northern blot. […] Total RNA from the colon adenocarcinoma cell line LS174T was isolated and fractionated on a 1% formaldehyde gel and transferred onto a nylon membrane. The RNA blot was hybridized to ^32P-labeled MDR1 cDNA probe (top panel) or 18s rRNA probe for normalization of RNA loading on the gel (bottom panel).
(§5) FIG. 32A: Lanes 1 and 2, primary human hepatocytes; lanes 3 and 4, LS174T cells. FIG. 32B: Lanes 1 and 2, HepG2 cells; lanes 3 and 4, HepG2 that overexpress PXR (Hepg-PXR cells). FIG. 32C: Lanes 1 and 2, Caco-2; lanes 3 and 4, Caco-2 cells that overexpress PXR (Caco-PXR cells).
(§6) Total RNA from the colon adenocarcinoma cell line LS174T was isolated and fractionated on a 1% formaldehyde gel and transferred onto a nylon membrane. The RNA blot was hybridized to ^32-P-labeled MDR1 cDNA probe (top panels), ^32-P-labeled CYP3A4 cDNA probe (middle panels), or 18s rRNA probe for normalization of RNA loading on the gel (bottom panels).
(§7) FIG. 37 depicts MDR1 gene regulation in response to chrysin as studied by Northern blot analysis. […] Total RNA from the hepatocytes was isolated and fractionated on a 1% formaldehyde gel and transferred onto a nylon membrane. The RNA blot was hybridized to ^32-P-labeled MDR1 cDNA probe (top panels), ^32P-labeled CYP3A4 cDNA probe (middle panels), or 18s rRNA probe for normalization of RNA loading on the gel (bottom panels).
Northern Blot analysis for MDR1 P-glycoprotein and CYP3A4 expression: Total RNA was prepared from cells (primary hepatocytes, LS174T, HepG2, or Caco-2) using Trizol reagent (Invitrogen, Carlsbad, Calif.). For Northern blots, 15 micrograms of total RNA was fractionated on a 1% formaldehyde gel and transferred onto a nylon membrane by capillary transfer. A 530-base pair fragment of MDR1 cDNA was obtained from PCR cloning using the sense primer […] The resulting fragment was ^32P-labeled by random priming (Invitrogen, Carlsbad, Calif.) for use as an MDR1 probe. […] All constructs and cDNAs were subjected to sequence analysis. Hybridization was performed with the ExpressHyb system according to the manufacturer's instructions (Clontech, Palo Alto, Calif.).

[4] = test system: PXR / mdr1(dr4) response element; assay: Transient transfection mdr1(dr4)-Luc reporter assay with PXR; conditions: Caco-2 cells transiently co-transfected with mdr1(dr4)-Luc and PXR; 48 hours
CYP3A4 mRNA = conditions: human, 48 h, 25 µM
Excerpt: as §5, §6, §7
Northern Blot analysis for MDR1 P-glycoprotein and CYP3A4 expression: Total RNA was prepared from cells (primary hepatocytes, LS174T, HepG2, or Caco-2) using Trizol reagent (Invitrogen, Carlsbad, Calif.). […]

[5] = test system: AhR (dioxin response elements); assay: in vitro; conditions: human, fold induction of luciferase activity above DMSO, DRE12-6 cells, 28 hours; TCDD 10 nanomoles per liter, omeprazole 25, 2-AAF 100, DMBA 20 micromoles per liter

COc1ccc2[nH]c([S+]([O-])Cc3ncc(C)c(OC)c3C)nc2c1 (stereo not drawn) [omeprazole]
fold increase in luciferase activity [1]: 3-6 fold | dose dependence of luciferase induction (in words) [2]: dose-dependent luciferase induction | dose dependence of luciferase induction (in words) [3]: dose-dependent luciferase induction

CC(=O)[C@H]1[C@H](C#N)C[C@H]2[C@@H]3CC=C4C[C@@H](O)CC[C@]4(C)[C@H]3CC[C@@]21C [PCN, pregnenolone 16 alpha-carbonitrile]
fold increase in luciferase activity above DMSO, single concentrations (FIG. 14) (hPXR / CYP3A4 enhancer): less than two | fold increase in luciferase activity above DMSO, single concentrations (FIG. 15) (CYP3A4 enhancer (PXRE)): less than one | MDR1 expression in LS174T cells (in words) (MDR1 P-glycoprotein mRNA; LS174T cells, 48 hours): only a slightly increase | fold increase in luciferase activity [4]: only a minor increase | CYP3A4 induction by Northern blot (in words) (CYP3A4 mRNA (PXR)): not

O=c1cc(-c2ccccc2)oc2cc(O)cc(O)c12 [chrysin]
CYP3A4 expression in primary hepatocytes (in words) (CYP3A4 mRNA): induce the expression of both MDR1 and CYP3A4 | MDR1 P-glycoprotein expression in primary human hepatocytes (in words) (MDR1 P-glycoprotein mRNA; human, 48 h, 25 µM): induce the expression of both MDR1 and CYP3A4 | fold increase in luciferase activity ([3]; human, 48 h): 5 fold | fold induction [5]: 4.2
